# Assay results from patent EP4029502A1, “PYRAZOLINE-DERIVED COMPOUND (ENFLICOXIB) FOR USE IN THE PREVENTION AND/OR TREATMENT OF PAIN AND INFLAMMATION ASSOCIATED TO SURGERY IN MAMMALS” (Ecuphar N.V., priority 2021, dated 2022).
# Read-outs that look alike come from different tables or passages of the source.
# Legend:
# [1] = test system: dogs undergoing soft tissue surgery; assay type: in vivo; set-up: Vocalization (SFGCMPS average value) / Attention to wound (SFGCMPS average value) / Mobility (SFGCMPS average value) / Demeanour (SFGCMPS average value) / Posture/Activity (SFGCMPS average value) / Total SFGCMPS (average value): scale not given here
# Source text: The study was a single centre, prospective, parallel-controlled, randomized and blinded pilot field trial with a negative (Placebo) control to evaluate the efficacy of E-6087 in dogs undergoing elective soft tissue surgery.
# Twenty dogs (17 females and 3 males) were included in the study. Dogs were of different breeds or crossbreed, ages from 3 months to 7 years and weights from 4 to 34 kg. All dogs were clinically healthy other than the condition causing the animal to go under surgery.
# Two days before surgery animals were weighed, a detailed physical examination was performed, and blood samples were collected for routine haematology and biochemistry to confirm the good health status of the animals before inclusion.
# Dogs were randomly allocated to receive either E-6087 or Placebo as oral tablets. E-6087 and Placebo tablets were similar (same appearance and packaging), therefore treatment administration, clinical examinations and blood sample analysis was always blind.
# E-6087 was administered at the dose of 8 mg/kg on day D-1, approximately 24h before surgery scheduled time, before the first meal of the day. Placebo tablets were administered following the same posology.
# Surgeries were performed in the morning, on day D0 by the Investigator (Surgeon). All surgeries were performed under the same anaesthesia protocol. Premedication was performed with medetomidine and morphine both at 0.1 ml/10 kg followed by anaesthesia maintained with Tiletamine/Zolazepam (Zoletil®). Local anaesthesia was not permitted. At the end of surgery, antibiotic therapy was administered to all dogs following the post-operative protocol stablished: amoxicillin (trihydrate) at 15 mg of amoxicillin/kg bw in a single dose.
# Clinical assessments of postoperative pain and inflammation were done by the Investigator (Examining Veterinarian) using the SFGCMPS (13). Visual Analog Scales (VAS) were also used to assess pain at rest and under palpation as well as the level of inflammation.
# On D0 at approximately 2 hours before surgery the Examining Veterinarian performed a physical examination and the clinical assessment of pain and inflammation to determine the basal scores. After surgery pain and inflammation were assessed at six examination time points: t1.5h, t3h, t5h (±30 minutes), t8h (±1hour), t24h and t168 (D7), when t0h corresponded to the end of surgery (extubation).
# Clinical assessment of pain and inflammation included assessments of vocalization, attention to wound area, mobility, reaction to pressure at the wound area, general behaviour as well as activity and posture as per SFGCMPS. In addition, pain at rest and after palpation as well as the level of inflammation were assessed at the same time points by VAS ranging from 0 (no pain) to 100 (severe pain manifested by vocalization, aggression, and refusal to allow examination) and from 0 (no inflammation) to 100 (major inflammation as local heat, redness or paresis of the affected area).
# Statistical Analysis was performed by use of commercially available software (SigmaPlot for Windows version 13.0). The area under the curve (AUC) was calculated for observable pain during the initial 8 and 24 hours, and it was considered as the primary efficacy variable. All analyses applied a two-sided significance level α = 0.05 and a power β = 80%. Demographic and baseline data were compared using the Mann-Whitney U test. Gender was compared with the Fisher exact probability test in contingency tables. Efficacy variables were analysed by repeated measures ANOVA.
# [2] = test system: dogs undergoing orthopaedic surgery; test: Non-inferiority field study of postoperative pain and inflammation after orthopaedic surgery, meloxicam-controlled (SFGCMPS, VAS); assay type: in vivo
# Source text: The study was a non-inferiority, multicentre, prospective, parallel-controlled, randomized and blinded field study.
# Thirty-two dogs of different breed, age and weight presenting at the veterinary practice for orthopaedic surgery were included.
# Agents with analgesic effect were permitted as premedication. However, intraoperative or postoperative analgesia were not permitted.
# For each dog the study lasted twelve days. Two days before surgery, all animals were weighed and underwent a thorough physical examination with clinical pathology to confirm the good health status of the animals before inclusion. Day 0 (D0) was the day dogs underwent surgery and t0h corresponded to the end of surgery (extubation). The physical examination was repeated on D0, before surgery (t-2h) and before dispatch (t8h) and again at t24h (D1) and t168 (D7) post-surgery. Clinical assessments of pain and inflammation were blindly performed on D0, before surgery (t-2h) and again at t1.5h, t3h, t5h, t8h, t24h (D1) and t168h (D7) post-surgery. The global efficacy of treatments was assessed on D7. From day D1 to day D7 post-surgery, the owners assessed the dog's wellbeing.
# The primary endpoint for efficacy comprises the sum of scores for the SFGCMPS scale, which was assessed at different time points by the Investigator.
# From day D1 to D7, owners daily assessed the dogs' wellbeing using scales for: • Demeanour (0=normal; 1=slightly modified; 2=moderately modified; 3=markedly modified and 4=severely modified). • Mobility (0=normal; 1=slightly impaired; 2=moderately impaired; 3=markedly impaired and 4=severely impaired). • Quality of analgesia as very satisfactory (=1); satisfactory (=2); not very satisfactory (=3); not at all satisfactory (=4).
# Blood samples were collected from all animals before inclusion (≤ D-2), for routine pre-surgery blood profile. Potential adverse effects related to the products were also recorded.
# Statistical Analysis was performed by use of commercially available software. All analyses used a two-sided significance level α = 0.05. […]
# [3] = test system: dogs undergoing experimental orthopaedic surgery; test: Control of postoperative pain and inflammation after experimental orthopaedic (knee) surgery, Maquet Modified Procedure; assay type: in vivo, Beagle dogs
# Description: The study was performed with 6 clinically healthy Beagle dogs with similar age and weight that were experimentally subjected to knee surgery (repair of cranial cruciate ligament rupture). […] All surgeries were conducted under the same preoperative, intraoperative and postoperative protocols and performed by the same surgeon. A highly standardized surgical technique, Maquet Modified Procedure (MMP) (12) was implemented.
# For each dog the study lasted 17 days, including a 7-day acclimatization period. On day D-1 (approximately 24h before the intervention) the five dogs in the TG received a single oral dose (8 mg/kg) of the TP, the one dog in the CG received a single subcutaneous dose (0.1 mg/kg) of the RP. […] On day D0 all dogs underwent knee surgery in the right knee. From day D1 up to day D10 dogs were closely examined and signs of pain and discomfort were blindly evaluated and rated using the Short Form of the Glasgow Composite Pain Scale (SFGCPS) ranging from 0 to 24 (13 and http://www.newmetrica.com/cmps/). On day D-1 dogs were also examined to rule out signs of pain or discomfort.
# [4] = 1.5h after surgery, 8 mg/kg oral on D-1
# [5] = 3h after surgery, 8 mg/kg oral on D-1
# [6] = 5h after surgery, 8 mg/kg oral on D-1
# [7] = 8h after surgery, 8 mg/kg oral on D-1
# [8] = 24h after surgery, 8 mg/kg oral on D-1
structure (smiles),measurement,setting,value
"NS(=O)(=O)c1ccc(N2N=C(C(F)(F)F)CC2c2ccc(F)cc2F)cc1 (centres unmarked) [E-6087, enflicoxib]",values of AUC for the first 24 hours after surgery compared with Placebo,"[1]; 8 mg/kg oral on D-1, not statistically significant (p=0.266)",almost half
same,AUC for the first 8 hours compared with Placebo,"[1]; 8 mg/kg oral on D-1, p=0,033",statistically significant lower values
same,Attention to wound (SFGCMPS average value),[1]; [4],0
same,Demeanour (SFGCMPS average value),[1]; [4],0.83
same,Mobility (SFGCMPS average value),[1]; [4],0.33
same,Posture/Activity (SFGCMPS average value),[1]; [4],0.17
same,Pressure on wound (SFGCMPS average value),[1]; [4],0.33
same,Total SFGCMPS (average value),[1]; [4],1.92
same,Vocalization (SFGCMPS average value),[1]; [4],0.25
same,Attention to wound (SFGCMPS average value),[1]; [5],0.08
same,Demeanour (SFGCMPS average value),[1]; [5],0.50
same,Mobility (SFGCMPS average value),[1]; [5],0
same,Posture/Activity (SFGCMPS average value),[1]; [5],0.08
same,Pressure on wound (SFGCMPS average value),[1]; [5],0.42
same,Total SFGCMPS (average value),[1]; [5],1.33
same,Vocalization (SFGCMPS average value),[1]; [5],0.25
same,level of inflammation (VAS 0-100) compared with Placebo,"[1]; 3 hours after surgery, p=0.021",Placebo was greater than for the group treated with E-6087
same,Attention to wound (SFGCMPS average value),[1]; [6],0.08
same,Demeanour (SFGCMPS average value),[1]; [6],0.17
same,Mobility (SFGCMPS average value),[1]; [6],0
same,Posture/Activity (SFGCMPS average value),[1]; [6],0
same,Pressure on wound (SFGCMPS average value),[1]; [6],0.50
same,Total SFGCMPS (average value),[1]; [6],0.75
same,Vocalization (SFGCMPS average value),[1]; [6],0
same,Attention to wound (SFGCMPS average value),[1]; [7],0
same,Demeanour (SFGCMPS average value),[1]; [7],0
same,Mobility (SFGCMPS average value),[1]; [7],0
same,Posture/Activity (SFGCMPS average value),[1]; [7],0
same,Pressure on wound (SFGCMPS average value),[1]; [7],0.67
same,Total SFGCMPS (average value),[1]; [7],0.50
same,Vocalization (SFGCMPS average value),[1]; [7],0
same,Attention to wound (SFGCMPS average value),[1]; [8],0
same,Demeanour (SFGCMPS average value),[1]; [8],0
same,Mobility (SFGCMPS average value),[1]; [8],0
same,Posture/Activity (SFGCMPS average value),[1]; [8],0
same,Pressure on wound (SFGCMPS average value),[1]; [8],0.50
same,Total SFGCMPS (average value),[1]; [8],0.50
same,Vocalization (SFGCMPS average value),[1]; [8],0
same,"AUC0→24h (SFGCMPS, observable pain)","[1]; first 24 hours after surgery, 8 mg/kg oral on D-1, primary efficacy variable","16,0±15"
same,Total scores for SFGCMPS at each time point compared with Placebo,"[1]; significant only at 1.5, 3 and 5 hours (p <0,001, 0.007 and 0.042)",always lower
same,alleviating pain and inflammation after soft tissue surgery,[1]; single dose of 8 mg/kg,effective
same,level of inflammation (VAS 0-100) compared with meloxicam,"[2]; at 3h, p= 0.025",lower values
same,"SFGCMPS (AUC), average value","[2]; initial 24 hours, TG: E-6087 8 mg/kg oral on D-1, CG: meloxicam 0.2 mg/kg s.c. or i.v. on D0, then 0.1 mg/kg oral daily D1 to D7, p=0.7962",95.50±57.70
same,SFGCMPS at each time point compared with CG,[2]; no statistically significant differences at any time point,most values were lower
same,need of rescue analgesia,[3]; 10 days follow up period,None of the animals needed rescue analgesia
same,potential adverse effects related to product administration,[3]; single oral dose 8 mg/kg on D-1,No potential adverse effects related to product administration were recorded
same,analgesic agent in the postoperative period after orthopaedic surgery,"[3]; single oral dose 8 mg/kg on D-1, SFGCPS 0-24, D1 to D10",effective
